Patent US20120065267A1, “COMPOSITIONS INCLUDING 3,5-L-T2 AND METHODS OF USE THEREOF” (priority 2010, published 2012)
“And” between values parts separate entries of the source, which are not always exact repeats. Identical values can stand only once.

Assay: Body weight of mice on Western Diet given low or high dose T2
Assay type: in vivo
Method: This corresponds to a dosage for an 80 kg human of about 20-200 mg/day, or a low dose of about 0.2-0.3 mg/kg of body weight to a high dose of about 2-3 mg/kg of body weight. One will appreciate, however, that some subjects (e.g., subjects having very low LDL receptor function) may receive higher doses, depending on need. likewise, some subjects may receive lower doses, which again depends on need. Mice in the study were fed a standard lab chow referred to as the “Western Diet.” The overall level of fat and the saturated nature of the fat are representative diets typical in the industrialized west that are linked to risk of cardiovascular disease in humans. The formula is used primarily with genetically manipulated rodent models that are susceptible to high cholesterol and cardiovascular disease. The diet may also be useful in diet-induced obesity, diabetes, and metabolic syndrome models. High cholesterol, obesity, and diabetes are each associated increased risk for cardiovascular disease. The composition of the Western Diet is shown below. C57 is a wild-type strain, LDLr+/− are a strain carrying one functional copy of the LDLr gene, and the LDLr0 animals are total LDLr knockouts. The LDLr gene encodes for the LDL receptor protein, which is responsible for scavenging LDL with bound cholesterol from the blood and transporting it into cells. Both heterozygous and homozygous LDLr knockout animals develop very high serum cholesterol levels and are considered to be a good model for heterozygous and homozygous familial hypercholesterolemia in humans. […] LDLr knockout animals have zero LDL receptor function.

N[C@@H](Cc1cc(I)c(Oc2ccc(O)cc2)c(I)c1)C(=O)O [T2, (2S)-2-amino-3-[4-(4-hydroxyphenoxy)-3,5-diiodophenyl]propanoic acid]
Body weight (C57 mice, Low Dose T2 0.25 mg/kg daily oral, Day 4, individual animal, 0.25 mg/kg, in g (unit assumed)): 26.8 and 27.2 and 23.7 and 26.7 and 25.1 and 25.4 | Body weight (Ave) (C57 mice, Low Dose T2 0.25 mg/kg daily oral, Day 5, group average): 26.8 g | Body weight (C57 mice, Low Dose T2 0.25 mg/kg daily oral, Day 5, individual animal, 0.25 mg/kg, in g (unit assumed)): 27.3 and 28.3 and 24.5 and 27.5 and 26.4 | Body weight (Ave) (C57 mice, Low Dose T2 0.25 mg/kg daily oral, Day 6, group average): 27.5 g | Body weight (C57 mice, Low Dose T2 0.25 mg/kg daily oral, Day 6, individual animal, 0.25 mg/kg, in g (unit assumed)): 28.1 and 29.9 and 24.8 and 28.7 and 26.1 | Body weight (Ave) (C57 mice, Low Dose T2 0.25 mg/kg daily oral, Day 7, group average): 28.3 g | Body weight (C57 mice, Low Dose T2 0.25 mg/kg daily oral, Day 7, individual animal, 0.25 mg/kg, in g (unit assumed)): 29.5 and 30.7 and 26.2 and 29.0 and 26.1 | Body weight (Ave) (LDLr0 mice, High Dose T2 2.5 mg/kg daily oral, Day 1, group average): 25.7 g | Body weight (LDLr0 mice, High Dose T2 2.5 mg/kg daily oral, Day 1, individual animal, 2.5 mg/kg, in g (unit assumed)): 23.9 and 27.4 | Body weight (Ave) (LDLr0 mice, High Dose T2 2.5 mg/kg daily oral, Day 2, group average): 24 g | Body weight (LDLr0 mice, High Dose T2 2.5 mg/kg daily oral, Day 2, individual animal, 2.5 mg/kg, in g (unit assumed)): 23.1 and 24.8 | Body weight (Ave) (LDLr0 mice, High Dose T2 2.5 mg/kg daily oral, Day 3, group average): 23.9 g | Body weight (LDLr0 mice, High Dose T2 2.5 mg/kg daily oral, Day 3, individual animal, 2.5 mg/kg, in g (unit assumed)): 22.8 and 24.9 | Body weight (Ave) (LDLr0 mice, High Dose T2 2.5 mg/kg daily oral, Day 4, group average): 24.2 g | Body weight (LDLr0 mice, High Dose T2 2.5 mg/kg daily oral, Day 4, individual animal, 2.5 mg/kg, in g (unit assumed)): 23.5 and 24.8 | Body weight (Ave) (LDLr0 mice, High Dose T2 2.5 mg/kg daily oral, Day 5, group average): 24.2 g | Body weight (LDLr0 mice, High Dose T2 2.5 mg/kg daily oral, Day 5, individual animal, 2.5 mg/kg, in g (unit assumed)): 23.1 and 25.3 | Body weight (Ave) (LDLr0 mice, Low Dose T2 0.25 mg/kg daily oral, Day 1, group average): 22.3 g | Body weight (LDLr0 mice, Low Dose T2 0.25 mg/kg daily oral, Day 1, individual animal, 0.25 mg/kg, in g (unit assumed)): 23.1 and 21.1 and 22.7 and 22.1 | Body weight (Ave) (LDLr0 mice, Low Dose T2 0.25 mg/kg daily oral, Day 2, group average): 22.8 g | Body weight (LDLr0 mice, Low Dose T2 0.25 mg/kg daily oral, Day 2, individual animal, 0.25 mg/kg, in g (unit assumed)): 21.6 and 23.6 and 23.2 | Body weight (Ave) (LDLr0 mice, Low Dose T2 0.25 mg/kg daily oral, Day 3, group average): 23.4 g | Body weight (LDLr0 mice, Low Dose T2 0.25 mg/kg daily oral, Day 3, individual animal, 0.25 mg/kg, in g (unit assumed)): 22.3 and 24.4 and 23.5 | Body weight (Ave) (LDLr0 mice, Low Dose T2 0.25 mg/kg daily oral, Day 4, group average): 22.3 g | Body weight (LDLr0 mice, Low Dose T2 0.25 mg/kg daily oral, Day 4, individual animal, 0.25 mg/kg, in g (unit assumed)): 21.2 and 22.9 and 22.8 | Body weight (Ave) (LDLr0 mice, Low Dose T2 0.25 mg/kg daily oral, Day 5, group average): 22.4 g | Body weight (LDLr0 mice, Low Dose T2 0.25 mg/kg daily oral, Day 5, individual animal, 0.25 mg/kg, in g (unit assumed)): 22.0 and 22.2 and 23.0 | Body weight (Ave) (LDLr0 mice, Low Dose T2 0.25 mg/kg daily oral, Day 6, group average): 22.3 g | Body weight (LDLr0 mice, Low Dose T2 0.25 mg/kg daily oral, Day 6, individual animal, 0.25 mg/kg, in g (unit assumed)): 22.1 and 21.7 and 23.1 | Body weight (Ave) (LDLr0 mice, Low Dose T2 0.25 mg/kg daily oral, Day 7, group average): 22.2 g | Body weight (LDLr0 mice, Low Dose T2 0.25 mg/kg daily oral, Day 7, individual animal, 0.25 mg/kg, in g (unit assumed)): 22.4 and 20.6 and 23.6 | Body weight (Ave) (LDLr+/− mice, High Dose T2 2.5 mg/kg daily oral, Day 1, group average): 30.8 g | Body weight (LDLr+/− mice, High Dose T2 2.5 mg/kg daily oral, Day 1, individual animal, 2.5 mg/kg, in g (unit assumed)): 32.8 and 31.8 and 29.8 and 31.4 and 29.2 and 29.6 | Body weight (Ave) (LDLr+/− mice, High Dose T2 2.5 mg/kg daily oral, Day 2, group average): 31.3 g | Body weight (LDLr+/− mice, High Dose T2 2.5 mg/kg daily oral, Day 2, individual animal, 2.5 mg/kg, in g (unit assumed)): 33.3 and 34.5 and 29.8 and 31.0 and 29.1 and 29.9 | Body weight (Ave) (LDLr+/− mice, High Dose T2 2.5 mg/kg daily oral, Day 3, group average): 31.1 g | Body weight (LDLr+/− mice, High Dose T2 2.5 mg/kg daily oral, Day 3, individual animal, 2.5 mg/kg): 33.1 and 33.9 and 29.8 (2×) and 30.9 and 29.3 | Body weight (Ave) (LDLr+/− mice, High Dose T2 2.5 mg/kg daily oral, Day 4, group average): 29.8 g | Body weight (LDLr+/− mice, High Dose T2 2.5 mg/kg daily oral, Day 4, individual animal, 2.5 mg/kg, in g (unit assumed)): 32.1 and 33.0 and 29.0 and 30.1 and 27.9 and 26.8 | Body weight (Ave) (LDLr+/− mice, High Dose T2 2.5 mg/kg daily oral, Day 5, group average): 29.7 g | Body weight (LDLr+/− mice, High Dose T2 2.5 mg/kg daily oral, Day 5, individual animal, 2.5 mg/kg, in g (unit assumed)): 32.3 and 32.9 and 28.9 and 30.4 and 27.6 and 26.3 | Body weight (Ave) (LDLr+/− mice, Low Dose T2 0.25 mg/kg daily oral, Day 1, group average): 26.7 g | Body weight (LDLr+/− mice, Low Dose T2 0.25 mg/kg daily oral, Day 1, individual animal, 0.25 mg/kg, in g (unit assumed)): 28.2 and 29.0 and 24.7 and 26.4 and 25.0 and 26.6 | Body weight (Ave) (LDLr+/− mice, Low Dose T2 0.25 mg/kg daily oral, Day 2, group average): 28.1 g | Body weight (LDLr+/− mice, Low Dose T2 0.25 mg/kg daily oral, Day 2, individual animal, 0.25 mg/kg, in g (unit assumed)): 29.4 and 30.6 and 26.6 and 27.8 and 26.1 and 28.2 | Body weight (Ave) (LDLr+/− mice, Low Dose T2 0.25 mg/kg daily oral, Day 3, group average): 28.6 g | Body weight (LDLr+/− mice, Low Dose T2 0.25 mg/kg daily oral, Day 3, individual animal, 0.25 mg/kg, in g (unit assumed)): 29.7 and 31.4 and 27.2 and 28.1 and 26.3 and 28.8 | Body weight (Ave) (LDLr+/− mice, Low Dose T2 0.25 mg/kg daily oral, Day 4, group average): 27.6 g | Body weight (LDLr+/− mice, Low Dose T2 0.25 mg/kg daily oral, Day 4, individual animal, 0.25 mg/kg, in g (unit assumed)): 28.8 and 30.3 and 26.2 and 27.4 and 25.8 and 27.3 | Body weight (Ave) (LDLr+/− mice, Low Dose T2 0.25 mg/kg daily oral, Day 5, group average): 28.5 g | Body weight (LDLr+/− mice, Low Dose T2 0.25 mg/kg daily oral, Day 5, individual animal, 0.25 mg/kg, in g (unit assumed)): 29.5 and 31.3 and 27.3 and 28.4 and 26.6 and 27.9 | Body weight (Ave) (LDLr+/− mice, Low Dose T2 0.25 mg/kg daily oral, Day 6, group average): 29.2 g | Body weight (LDLr+/− mice, Low Dose T2 0.25 mg/kg daily oral, Day 6, individual animal, 0.25 mg/kg, in g (unit assumed)): 30.7 and 32.4 and 28.5 and 29.1 and 26.7 and 27.9 | Body weight (Ave) (LDLr+/− mice, Low Dose T2 0.25 mg/kg daily oral, Day 7, group average): 30 g | Body weight (LDLr+/− mice, Low Dose T2 0.25 mg/kg daily oral, Day 7, individual animal, 0.25 mg/kg): 31.0 and 32.7 and 29.6 (2×) and 28.2 and 29.0 | effect on weight gain (low and high dose T2, all genotypes): did not affect
